Among the data in ChEMBL document CHEMBL1157539, “Thousands of chemical starting points for antimalarial lead identification” (Nature, 2010) are XC50 values, retold here.

Structures are written as SMILES.

The experiment concerns Plasmodium falciparum. In words: GSK_TCMDC: Inhibition of Plasmodium falciparum 3D7 in whole erythrocytes, using parasite LDH activity as an index of growth. The format is functional, organism-based. Conditions: Plasmodium falciparum, 3D7.
Compound `CCCC(CNCc1cccc(SC(F)(F)F)c1)CNc1cc(=O)c2ccccc2[nH]1` (stereo not drawn) returned an XC50 of 715 nM.

In the case of `Cc1cc(C2CCN(CCCCNC(=O)c3ccc(-c4ccc(C(F)(F)F)cc4)cc3)CC2)c(C)cc1OCCOC1CCCCO1` (stereo not drawn), the XC50 came out at 785 nM.

Take `c1ccc(Oc2ccc(Nc3ccnc4cc(-c5ccc(CN6CCCCC6)o5)ccc34)cc2)nc1`: the XC50 was found to be 331 nM.

The compound `Cc1cc(Nc2c(C(N)=O)cnc3cc(-c4ccoc4)ccc23)ccc1N1CCN(C)CC1` gave an XC50 of 797 nM.

Take `O=C(NCc1cccc2ccccc12)[C@@H]1CCCN1C(=O)c1ccc(O)c(-c2ccc(Cl)c(Cl)c2)c1`: the XC50 came out at 948 nM.

The compound `O=C(Nc1cccc(-c2cc(-c3c(Cl)cccc3Cl)no2)c1)c1cncc(-c2cccs2)c1` gave an XC50 of 952 nM.

Compound `O=C(NCC1CCC(C(=O)NCc2cccc(C(F)(F)F)c2)CC1)c1ccc(O)c(-c2ccc(Cl)c(Cl)c2)c1` (stereo not drawn) had an XC50 of 711 nM.

On to `CN1CCN(c2cc3c(cc2Cl)CCN3C(=O)Nc2ccc(NC(=O)c3ccc(C(F)(F)F)cc3)cc2)CC1`, for which the XC50 stood at 515 nM.

Consider `CN1CCN(CC(=O)Nc2cccc(-c3cccc(-c4nc5cc(F)ccc5[nH]4)c3)c2)CC1`, for which the XC50 came to 741 nM.

With `Fc1ccc2[nH]c(-c3ccc(-c4ccc(CN5CCN(CCN6CCOCC6)CC5)cc4)cc3)nc2c1`, the XC50 came to 183 nM.

`COc1ccc2ncc(C#N)c(CCN3CCC(NCc4ccc5c(c4)OCCO5)CC3)c2c1`: the XC50 came to 910 nM.

`COc1ccc(CCN(C)CCCN2CCC(NC(=O)c3cccc4c(=O)c5ccccc5sc34)CC2)cc1OC`: the XC50 was 786 nM.

`CCOc1cc2ccccc2cc1CNCCCCCCNCc1cc2ccccc2cc1OCC`: the XC50 was found to be 979 nM.

The compound `CCC1CN2CCc3c([nH]c4ccc(OC)cc34)C2CC1CC1NCCc2cc(OC)c(OC)cc21` (stereo not drawn) displayed an XC50 of 862 nM.

Compound `CN(c1cc(NC(=O)c2cccs2)ccn1)C1CCN(Cc2cccc(C#N)c2)CC1` yielded an XC50 of 1260 nM.

For `Cc1ccc(CC(C)(C)NCC(O)c2cccc(C(F)(F)F)c2)cc1` (stereo not drawn), the XC50 was 836 nM.

Regarding `CC1(C)NC(N)=NC(=N)N1OCc1cc(Cl)c(Cl)cc1CON1C(=N)N=C(N)NC1(C)C`, the XC50 worked out at 14.6 nM.

In turn, `O=C(C=Cc1ccccc1O)N1CCC(CN2CCC(c3c[nH]c4ccccc34)CC2)CC1` came in with an XC50 of 961 nM.

`COc1ccccc1CNC(=O)C(=O)Nc1c(-c2ccccc2)[nH]c2ccccc12`: the XC50 was 737 nM.

On to `Cc1cc(NCCc2cccc(F)c2)nc(NC(=N)Nc2cccc(C(F)(F)F)c2)n1`, for which the XC50 came out at 146 nM.

The compound `O=C(Cc1ccsc1)NCC(c1ccccc1Cl)c1c[nH]c2ccccc12` (stereo not drawn) showed an XC50 of 950 nM.

For `CC(C)(CNCCOc1ccc(Cl)cc1)c1nc(-c2ccnc(N)n2)c(-c2ccc(Cl)c(O)c2)[nH]1`, the XC50 was determined as 834 nM.

`COc1ccc(OCCCN2CCN(CC(c3ccc(F)cc3)N3CCN(C(C)C)CC3)CC2)c2ccccc12` (stereo not drawn) returned an XC50 of 650 nM.

For `C[C@@H]1CC[C@H](NC(=O)[C@H](CC2CCCC2)NC(=O)N2CCNCC2)C(=O)CN1S(=O)(=O)c1ccccn1`, the XC50 worked out at 891 nM.

Regarding `CC(=O)Nc1cccc(CN(Cc2ccc(-c3ccc(CNCc4cccnc4)cn3)cc2)C(=O)Cc2cccnc2)c1`, the XC50 amounted to 820 nM.

In turn, `O=C(Nc1cccc(CN2CCCN(Cc3ncc[nH]3)CC2)c1)c1cc2ccccc2s1` registered an XC50 of 734 nM.

Regarding `Cc1cc(S(=O)(=O)N2CCCCC(c3ccc(C(F)(F)F)cc3)=N2)c(Cl)cc1Cl`, the XC50 turned out to be 504 nM.

In turn, `CCCNCc1ccc(-c2ccc(CN(CC3CCCO3)C(=O)COc3ccccc3Cl)cc2)nc1` (stereo not drawn) came in with an XC50 of 1180 nM.

The compound `CCOc1cc[nH]c(=O)n1` had an XC50 of 458 nM.

Consider `Cc1cccc2nc(-c3cccc(-c4ccc(NC(=O)Nc5ccc(Cl)cc5)cc4)c3)[nH]c12`, for which the XC50 amounted to 199 nM.

With `Cc1cc(C(=O)CSc2nc3ccccc3n2-c2ccccc2)c(C)n1C1CCS(=O)(=O)C1` (stereo not drawn), the XC50 came to 1000 nM.

As for `CN1CCC(N(C)C(=O)C=Cc2cn(-c3ccccc3)nc2-c2cc3ccccc3o2)CC1`, the XC50 was determined as 1340 nM.

Compound `Cc1cc(-c2ccc3c(c2)CCN(CCC2CCC(NC(=O)/C=C/c4ccc(F)cc4)CC2)CC3)on1` (stereo not drawn) returned an XC50 of 724 nM.
